{"source": "patent US20260015358A1", "about": "“BICYCLIC DERIVATIVES, COMPOSITIONS AND USES THEREOF” (Danatlas Pharmaceuticals Co., Ltd., priority 2023, published 2026)", "key": {"[1]": {"molecular_target": "T1, WRN [UniPro: Q14191 (WRN_HUMAN), N500-C946] (Homo sapiens (Human), UniProt Q14191)", "T1 sequence (Q14191 500-946)": "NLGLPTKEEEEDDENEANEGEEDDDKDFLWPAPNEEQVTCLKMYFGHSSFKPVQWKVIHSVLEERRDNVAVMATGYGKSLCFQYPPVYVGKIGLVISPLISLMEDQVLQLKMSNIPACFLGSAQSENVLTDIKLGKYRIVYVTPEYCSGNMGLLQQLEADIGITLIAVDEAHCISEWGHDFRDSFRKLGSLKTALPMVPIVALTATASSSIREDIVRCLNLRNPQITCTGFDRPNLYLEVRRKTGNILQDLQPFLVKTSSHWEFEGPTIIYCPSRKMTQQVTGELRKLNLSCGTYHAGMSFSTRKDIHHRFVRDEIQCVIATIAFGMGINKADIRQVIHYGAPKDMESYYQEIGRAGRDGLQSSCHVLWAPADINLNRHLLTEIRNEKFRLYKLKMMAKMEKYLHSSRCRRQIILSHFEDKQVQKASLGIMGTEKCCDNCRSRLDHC", "assay": "WRN ATPase assay (ADP-Glo)", "type": "biochemical", "conditions": "WRN enzymatic activity assay"}, "[2]": {"molecular_target": "T1, WRN [UniPro: Q14191 (WRN_HUMAN), N500-C946]", "assay": "WRN unwinding assay (FORKF DNA, fluorescence)", "type": "biochemical", "conditions": "Table 14"}}, "data": [{"compound": "CCc1c(N2CCN(C(=O)CNC(=O)c3nccs3)CC2)c(=O)n2nc(N3CCOCC3)nc2n1CC(=O)Nc1ccc(C(F)(F)F)cc1Cl", "note": "[Example 248, N-(2-(4-(4-(2-((2-Chloro-4-(trifluoromethyl)phenyl)amino)-2-oxoethyl)-5-ethyl-2-morpholino-7-oxo-4,7-dihydro-[1,2,4]triazolo[1,5-a]pyrimidin-6-yl)piperazin-1-yl)-2-oxoethyl)thiazole-2-carboxamide]", "values": [{"measurement": "IC50", "setting": "[1]", "value": "< 100", "unit": "nM"}, {"measurement": "IC50", "setting": "[2]", "value": "< 100", "unit": "nM"}]}, {"compound": "CCc1c(N2CCN(C(=O)C(=O)NCC(F)(F)F)CC2)c(=O)n2nc(C3=CCOCC3)nc2n1CC(=O)Nc1ccc(C(F)(F)F)cc1Cl", "note": "[Example 360, 2-(4-(4-(2-((2-Chloro-4-(trifluoromethyl)phenyl)amino)-2-oxoethyl)-2-(3,6-dihydro-2H-pyran-4-yl)-5-ethyl-7-oxo-4,7-dihydro-[1,2,4]triazolo[1,5-a]pyrimidin-6-yl)piperazin-1-yl)-2-oxo-N-(2,2,2-trifluoroethyl)acetamide]", "values": [{"measurement": "IC50", "setting": "[1]", "value": "> 1000", "unit": "nM"}, {"measurement": "IC50", "setting": "[2]", "value": "> 1000", "unit": "nM"}]}, {"compound": "CCc1c(N2CCN(C(=O)CNC(=O)c3ncncc3O)CC2)c(=O)n2nc(C3=CCOCC3)nc2n1CC(=O)Nc1ccc(C(F)(F)F)cc1Cl", "note": "[Example 364, N-(2-(4-(4-(2-((2-Chloro-4-(trifluoromethyl)phenyl)amino)-2-oxoethyl)-2-(3,6-dihydro-2H-pyran-4-yl)-5-ethyl-7-oxo-4,7-dihydro-[1,2,4]triazolo[1,5-a]pyrimidin-6-yl)piperazin-1-yl)-2-oxoethyl)-5-hydroxypyrimidine-4-carboxamide]", "values": [{"measurement": "IC50", "setting": "[1]", "value": "< 100", "unit": "nM"}, {"measurement": "IC50", "setting": "[2]", "value": "< 100", "unit": "nM"}]}, {"compound": "CCc1c(N2CCN(C(=O)c3sc4cnccc4c3N)CC2)c(=O)n2nc(C3=CCOCC3)nc2n1CC(=O)Nc1ccc(C(F)(F)F)cc1Cl", "note": "[Example 6, 2-(6-(4-(3-Aminothieno[2,3-c]pyridine-2-carbonyl)piperazin-1-yl)-2-(3,6-dihydro-2H-pyran-4-yl)-5-ethyl-7-oxo-[1,2,4]triazolo[1,5-a]pyrimidin-4(7H)-yl)-N-(2-chloro-4-(trifluoromethyl)phenyl)acetamide]", "values": [{"measurement": "IC50", "setting": "[1]", "value": "100 to 1000", "unit": "nM"}, {"measurement": "IC50", "setting": "[2]", "value": "< 100", "unit": "nM"}]}, {"compound": "CCc1c(N2CCN(C(=O)CNC(=O)c3cnc4c(ccn4C)c3O)CC2)c(=O)n2nc(C3=CCOCC3)nc2n1CC(=O)Nc1ccc(C(F)(F)F)cc1Cl", "note": "[Example 120, N-(2-(4-(4-(2-((2-Chloro-4-(trifluoromethyl)phenyl)amino)-2-oxoethyl)-2-(3,6-dihydro-2H-pyran-4-yl)-5-ethyl-7-oxo-4,7-dihydro-[1,2,4]triazolo[1,5-a]pyrimidin-6-yl)piperazin-1-yl)-2-oxoethyl)-4-hydroxy-1-methyl-1H-pyrrolo[2,3-b]pyridine-5-carboxamide]", "values": [{"measurement": "IC50", "setting": "[1]", "value": "100 to 1000", "unit": "nM"}, {"measurement": "IC50", "setting": "[2]", "value": "< 100", "unit": "nM"}]}, {"compound": "CCc1c(N2CCN(C(=O)c3nc4ccsc4cc3O)CC2)c(=O)n2nc(C3=CCOCC3)nc2n1CC(=O)Nc1ccc(C(F)(F)F)cc1Cl", "note": "[Example 305, N-(2-Chloro-4-(trifluoromethyl)phenyl)-2-(2-(3,6-dihydro-2H-pyran-4-yl)-5-ethyl-6-(4-(6-hydroxythieno[3,2-b]pyridine-5-carbonyl)piperazin-1-yl)-7-oxo-[1,2,4]triazolo[1,5-a]pyrimidin-4(7H)-yl)acetamide]", "values": [{"measurement": "IC50", "setting": "[1]", "value": "< 100", "unit": "nM"}, {"measurement": "IC50", "setting": "[2]", "value": "< 100", "unit": "nM"}]}, {"compound": "CCc1c(N2CCN(C(=O)CNC(=O)[C@H]3CCCO3)CC2)c(=O)n2nc(C3=CCOCC3)nc2n1CC(=O)Nc1ccc(C(F)(F)F)cc1Cl", "note": "[Example 321, (R)—N-(2-(4-(4-(2-((2-Chloro-4-(trifluoromethyl)phenyl)amino)-2-oxoethyl)-2-(3,6-dihydro-2H-pyran-4-yl)-5-ethyl-7-oxo-4,7-dihydro-[1,2,4]triazolo[1,5-a]pyrimidin-6-yl)piperazin-1-yl)-2-oxoethyl)tetrahydrofuran-2-carboxamide]", "values": [{"measurement": "IC50", "setting": "[1]", "value": "100 to 1000", "unit": "nM"}, {"measurement": "IC50", "setting": "[2]", "value": "< 100", "unit": "nM"}]}, {"compound": "CCc1c(N2CCN(C(=O)CNC(=O)c3ccccc3F)CC2)c(=O)n2nc(C3=CCOCC3)nc2n1CC(=O)Nc1cc(Br)cs1", "note": "[Example 161, N-(2-(4-(4-(2-((4-Bromothiophen-2-yl)amino)-2-oxoethyl)-2-(3,6-dihydro-2H-pyran-4-yl)-5-ethyl-7-oxo-4,7-dihydro-[1,2,4]triazolo[1,5-a]pyrimidin-6-yl)piperazin-1-yl)-2-oxoethyl)-2-fluorobenzamide]", "values": [{"measurement": "IC50", "setting": "[1]", "value": "< 100", "unit": "nM"}, {"measurement": "IC50", "setting": "[2]", "value": "< 100", "unit": "nM"}]}, {"compound": "CCc1c(N2CCN(C(=O)C(=O)Nc3nccs3)CC2)c(=O)n2nc(N3CCCOCC3)nc2n1CC(=O)Nc1ccc(C(F)(F)F)cc1F", "note": "[Example 262, 2-(4-(5-Ethyl-4-(2-((2-fluoro-4-(trifluoromethyl)phenyl)amino)-2-oxoethyl)-2-(1,4-oxazepan-4-yl)-7-oxo-4,7-dihydro-[1,2,4]triazolo[1,5-a]pyrimidin-6-yl)piperazin-1-yl)-2-oxo-N-(thiazol-2-yl)acetamide]", "values": [{"measurement": "IC50", "setting": "[1]", "value": "100 to 1000", "unit": "nM"}, {"measurement": "IC50", "setting": "[2]", "value": "< 100", "unit": "nM"}]}, {"compound": "CCc1c(N2CCN(C(=O)CNC(=O)c3nc(N)ccc3F)CC2)c(=O)n2nc(C3=CCOCC3)nc2n1CC(=O)Nc1ccc(C(F)(F)F)cc1Cl", "note": "[Example 367, 6-Amino-N-(2-(4-(4-(2-((2-chloro-4-(trifluoromethyl)phenyl)amino)-2-oxoethyl)-2-(3,6-dihydro-2H-pyran-4-yl)-5-ethyl-7-oxo-4,7-dihydro-[1,2,4]triazolo[1,5-a]pyrimidin-6-yl)piperazin-1-yl)-2-oxoethyl)-3-fluoropicolinamide]", "values": [{"measurement": "IC50", "setting": "[1]", "value": "< 100", "unit": "nM"}, {"measurement": "IC50", "setting": "[2]", "value": "< 100", "unit": "nM"}]}, {"compound": "CCc1c(N2CCN(C(=O)c3cnc4cc(C)cn4c3O)CC2)c(=O)n2nc(C3=CCOCC3)nc2n1CC(=O)Nc1ccc(C(F)(F)F)cc1Cl", "note": "[Example 92, N-(2-Chloro-4-(trifluoromethyl)phenyl)-2-(2-(3,6-dihydro-2H-pyran-4-yl)-5-ethyl-6-(4-(4-hydroxy-7-methylpyrrolo[1,2-a]pyrimidine-3-carbonyl)piperazin-1-yl)-7-oxo-[1,2,4]triazolo[1,5-a]pyrimidin-4(7H)-yl)acetamide]", "values": [{"measurement": "IC50", "setting": "[1]", "value": "< 100", "unit": "nM"}, {"measurement": "IC50", "setting": "[2]", "value": "< 100", "unit": "nM"}]}, {"compound": "CCc1c(N2CCN(C(=O)CNC(=O)N3CCc4cccc(F)c43)CC2)c(=O)n2nc(C3=CCOCC3)nc2n1CC(=O)Nc1ccc(C(F)(F)F)cc1Cl", "note": "[Example 193, N-(2-(4-(4-(2-((2-Chloro-4-(trifluoromethyl)phenyl)amino)-2-oxoethyl)-2-(3,6-dihydro-2H-pyran-4-yl)-5-ethyl-7-oxo-4,7-dihydro-[1,2,4]triazolo[1,5-a]pyrimidin-6-yl)piperazin-1-yl)-2-oxoethyl)-7-fluoroindoline-1-carboxamide]", "values": [{"measurement": "IC50", "setting": "[1]", "value": "< 100", "unit": "nM"}, {"measurement": "IC50", "setting": "[2]", "value": "< 100", "unit": "nM"}]}, {"compound": "CCc1c(N2CCN(C(=O)c3ncnc4cn[nH]c34)CC2)c(=O)n2nc(C3=CCOCC3)nc2n1CC(=O)Nc1ccc(C(F)(F)F)cc1Cl", "note": "[Example 17, 2-(6-(4-(1H-Pyrazolo[4,3-d]pyrimidine-7-carbonyl)piperazin-1-yl)-2-(3,6-dihydro-2H-pyran-4-yl)-5-ethyl-7-oxo-[1,2,4]triazolo[1,5-a]pyrimidin-4(7H)-yl)-N-(2-chloro-4-(trifluoromethyl)phenyl)acetamide]", "values": [{"measurement": "IC50", "setting": "[1]", "value": "< 100", "unit": "nM"}, {"measurement": "IC50", "setting": "[2]", "value": "< 100", "unit": "nM"}]}, {"compound": "CCc1c(N2CCN(C(=O)CNC(=O)c3c(Cl)cccc3Cl)CC2)c(=O)n2nc(C3=CCOCC3)nc2n1CC(=O)Nc1ccc(C(F)(F)F)cc1Cl", "note": "[Example 125, 2,6-Dichloro-N-(2-(4-(4-(2-((2-chloro-4-(trifluoromethyl)phenyl)amino)-2-oxoethyl)-2-(3,6-dihydro-2H-pyran-4-yl)-5-ethyl-7-oxo-4,7-dihydro-[1,2,4]triazolo[1,5-a]pyrimidin-6-yl)piperazin-1-yl)-2-oxoethyl)benzamide]", "values": [{"measurement": "IC50", "setting": "[1]", "value": "100 to 1000", "unit": "nM"}, {"measurement": "IC50", "setting": "[2]", "value": "< 100", "unit": "nM"}]}, {"compound": "CCc1c(N2CCN(C(=O)CNC(=O)c3cccc(Cl)c3Cl)CC2)c(=O)n2nc(C3=CCOCC3)nc2n1CC(=O)Nc1ccc(C(F)(F)F)cc1Cl", "note": "[Example 104, 2,3-Dichloro-N-(2-(4-(4-(2-((2-chloro-4-(trifluoromethyl)phenyl)amino)-2-oxoethyl)-2-(3,6-dihydro-2H-pyran-4-yl)-5-ethyl-7-oxo-4,7-dihydro-[1,2,4]triazolo[1,5-a]pyrimidin-6-yl)piperazin-1-yl)-2-oxoethyl)benzamide]", "values": [{"measurement": "IC50", "setting": "[1]", "value": "100 to 1000", "unit": "nM"}, {"measurement": "IC50", "setting": "[2]", "value": "< 100", "unit": "nM"}]}, {"compound": "CCc1c(N2CCN(C(=O)CNC(=O)c3ccc(OC)cc3)CC2)c(=O)n2nc(C3=CCOCC3)nc2n1CC(=O)Nc1ccc(C(F)(F)F)cc1Cl", "note": "[Example 119, N-(2-(4-(4-(2-((2-Chloro-4-(trifluoromethyl)phenyl)amino)-2-oxoethyl)-2-(3,6-dihydro-2H-pyran-4-yl)-5-ethyl-7-oxo-4,7-dihydro-[1,2,4]triazolo[1,5-a]pyrimidin-6-yl)piperazin-1-yl)-2-oxoethyl)-4-methoxybenzamide]", "values": [{"measurement": "IC50", "setting": "[1]", "value": "< 100", "unit": "nM"}, {"measurement": "IC50", "setting": "[2]", "value": "< 100", "unit": "nM"}]}, {"compound": "CCc1c(N2CCN(C(=O)CNC(=O)CC3CCC3)CC2)c(=O)n2nc(C3=CCOCC3)nc2n1CC(=O)Nc1ccc(C(F)(F)F)cc1Cl", "note": "[Example 272, N-(2-Chloro-4-(trifluoromethyl)phenyl)-2-(6-(4-((2-cyclobutylacetyl)glycyl)piperazin-1-yl)-2-(3,6-dihydro-2H-pyran-4-yl)-5-ethyl-7-oxo-[1,2,4]triazolo[1,5-a]pyrimidin-4(7H)-yl)acetamide]", "values": [{"measurement": "IC50", "setting": "[1]", "value": "< 100", "unit": "nM"}, {"measurement": "IC50", "setting": "[2]", "value": "< 100", "unit": "nM"}]}, {"compound": "CCc1c(N2CCN(C(=O)c3[nH]cnc3F)CC2)c(=O)n2nc(C3=CCOCC3)nc2n1CC(=O)Nc1ccc(C(F)(F)F)cc1Cl", "note": "[Example 299, N-(2-Chloro-4-(trifluoromethyl)phenyl)-2-(2-(3,6-dihydro-2H-pyran-4-yl)-5-ethyl-6-(4-(4-fluoro-1H-imidazole-5-carbonyl)piperazin-1-yl)-7-oxo-[1,2,4]triazolo[1,5-a]pyrimidin-4(7H)-yl)acetamide]", "values": [{"measurement": "IC50", "setting": "[1]", "value": "100 to 1000", "unit": "nM"}, {"measurement": "IC50", "setting": "[2]", "value": "100 to 1000", "unit": "nM"}]}, {"compound": "CCc1c(N2CCN(C(=O)CNC(=O)c3ccc(F)c(F)c3)CC2)c(=O)n2nc(C3=CCOCC3)nc2n1CC(=O)Nc1ccc(C(F)(F)F)cc1Cl", "note": "[Example 132, N-(2-(4-(4-(2-((2-Chloro-4-(trifluoromethyl)phenyl)amino)-2-oxoethyl)-2-(3,6-dihydro-2H-pyran-4-yl)-5-ethyl-7-oxo-4,7-dihydro-[1,2,4]triazolo[1,5-a]pyrimidin-6-yl)piperazin-1-yl)-2-oxoethyl)-3,4-difluorobenzamide]", "values": [{"measurement": "IC50", "setting": "[1]", "value": "< 100", "unit": "nM"}, {"measurement": "IC50", "setting": "[2]", "value": "< 100", "unit": "nM"}]}]}
